# Laboratory results reported in patent US10919841B2, “Monoamine reuptake inhibitors” (Research Triangle Institute, priority 2009, dated 2021).
# Read-outs that look alike come from different tables or passages of the source. Marks after values point to notes of the source that are not given here.
# How the values were obtained:
# [1] = test system: mice; test: locomotor activity, 8-h time course protocol; format: in vivo; conditions: for Locomotor Activity 8-Hour Time, min Period, max: time period of maximum effect; for locomotor stimulant activity across the 1-h and 8-h protocols, in words: 1-h and 8-h tests compared; for ED50 / Emax: Mus musculus; for ED50: read-out: Locomotor Activity 8-Hour ED50; for Emax: read-out: Locomotor Activity 8-Hour % Peak Cocaine, percent of cocaine's maximal effect, 30 min period of maximum stimulation; for Locomotor Activity 8-Hour Time, min Period, length: duration of locomotor activity
# [2] = molecular target: T1, (h)DAT (Homo sapiens, UniProt Q01959); test: block of [3H]dopamine reuptake in HEK-(h)DAT cells; format: cell-based
# T1 construct: expressed in transfected cells
# T1 sequence (Q01959 whole entry): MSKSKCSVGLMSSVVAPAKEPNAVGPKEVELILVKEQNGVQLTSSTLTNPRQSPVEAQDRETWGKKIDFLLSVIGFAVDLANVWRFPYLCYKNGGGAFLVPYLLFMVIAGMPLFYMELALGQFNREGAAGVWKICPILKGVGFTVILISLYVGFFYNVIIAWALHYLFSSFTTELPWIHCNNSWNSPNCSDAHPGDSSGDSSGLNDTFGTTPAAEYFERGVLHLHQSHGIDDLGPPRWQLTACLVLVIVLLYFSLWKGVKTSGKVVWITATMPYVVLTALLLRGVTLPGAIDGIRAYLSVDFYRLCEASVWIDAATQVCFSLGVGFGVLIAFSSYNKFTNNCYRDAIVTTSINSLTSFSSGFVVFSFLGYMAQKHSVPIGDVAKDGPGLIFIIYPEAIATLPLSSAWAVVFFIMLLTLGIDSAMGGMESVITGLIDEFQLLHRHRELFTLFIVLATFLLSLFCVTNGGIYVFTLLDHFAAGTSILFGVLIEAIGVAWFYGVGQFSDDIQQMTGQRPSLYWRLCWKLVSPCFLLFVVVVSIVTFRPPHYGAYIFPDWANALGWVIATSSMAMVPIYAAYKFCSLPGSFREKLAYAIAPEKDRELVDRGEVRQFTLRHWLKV
# [3] = molecular target: T1, (h)DAT; test: competition binding with [125I]RTI-55 at (h)DAT stably expressed in HEK293 cells; conditions: mean ± standard error of three independent experiments
# [4] = test system: rats; test: cocaine discrimination (2-lever operant), i.p. administration; conditions: Rattus norvegicus, ip; for responders at 5 mg/kg / responders at 10 mg/kg / responders at 25 mg/kg / responders at 50 mg/kg / responders at 100 mg/kg: read-out: % cocaine lever responding; for ED50: read-out: Full Generalization ED50
# [5] = test system: mice; test: locomotor activity, 1-h observation protocol; format: in vivo; conditions: for Locomotor Activity 1-Hour ED50 / ED50: dose to produce 50% of the compound's maximal effect, 1-h; for Emax / ED50: Mus musculus; for Emax: 0.5 h, read-out: Locomotor Activity 1-Hour % Peak Cocaine
# [6] = test system: rats; test: cocaine discrimination time-course study, oral administration; conditions: Rattus norvegicus, po, 0.75 h
# [7] = molecular target: T2, (h)NET (Homo sapiens, UniProt P23975); test: competition binding with [125I]RTI-55 at (h)NET stably expressed in HEK293 cells; conditions: read-out: Binding, Ki NET; mean ± standard error of three independent experiments
# T2 sequence (P23975 whole entry): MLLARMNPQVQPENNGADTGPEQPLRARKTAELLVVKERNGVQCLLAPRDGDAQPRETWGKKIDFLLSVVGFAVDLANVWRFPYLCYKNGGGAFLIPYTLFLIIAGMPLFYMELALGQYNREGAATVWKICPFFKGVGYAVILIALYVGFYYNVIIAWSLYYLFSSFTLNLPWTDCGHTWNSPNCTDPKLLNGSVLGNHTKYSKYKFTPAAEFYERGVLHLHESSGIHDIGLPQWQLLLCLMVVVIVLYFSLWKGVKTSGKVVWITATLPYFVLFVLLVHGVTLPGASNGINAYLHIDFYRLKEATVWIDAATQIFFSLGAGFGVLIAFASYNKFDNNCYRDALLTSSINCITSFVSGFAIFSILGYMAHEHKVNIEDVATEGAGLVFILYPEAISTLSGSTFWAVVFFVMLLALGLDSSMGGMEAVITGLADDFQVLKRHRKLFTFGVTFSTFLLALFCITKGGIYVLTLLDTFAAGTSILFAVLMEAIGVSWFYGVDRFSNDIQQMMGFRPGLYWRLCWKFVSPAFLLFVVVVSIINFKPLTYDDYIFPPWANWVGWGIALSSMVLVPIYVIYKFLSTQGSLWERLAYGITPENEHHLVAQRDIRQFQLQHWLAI
# [8] = molecular target: T2, (h)NET; test: block of [3H]norepinephrine reuptake in HEK-(h)NET cells; conditions: read-out: Uptake, IC50 [3H]NE; mean ± standard error of three independent experiments
# [9] = mean ± standard error of three independent experiments, read-out: Uptake, IC50 [3H]DA
# [10] = dose to produce 50% of the compound's maximal effect, 8-h
SMILES,"Locomotor Activity 8-Hour Time, min Period, max [1]","IC50 [2, 9]",Ki [3],responders at 5 mg/kg [4],responders at 10 mg/kg [4],responders at 25 mg/kg [4],responders at 50 mg/kg [4],Locomotor Activity 1-Hour ED50 [5],"locomotor stimulant activity across the 1-h and 8-h protocols, in words [1]",Emax [1],"Locomotor Activity 8-Hour Time, min Period, length [1]",Emax [5],ED50 [5],also measured
"CC(NC(C)(C)C)C(=O)c1ccc(Cl)cc1 (stereo not drawn) [Compound 2f, 2-(N-tert-Butylamino)-4′-chloropropiophenone]",180 to 210 min,2320 nM,2200 nM,0%,33%,17%,0%,NE^f,–,–,–,–,–,responders at 100 mg/kg [4]: 34%
"Cc1ccc(C(=O)C(C)NC(C)(C)C)cc1 (stereo not drawn) [Compound 2h, 2-(N-tert-Butylamino)-4′-methylpropiophenone]",30 to 60 min,–,–,0%,0%,17%,67%,–,weak stimulants in both tests,52%,60 to 140 min,65%,8.77 mg/kg,ED50 ([1]; 8 h): 4.4 mg/kg; responders at 100 mg/kg [4]: 10%; ED50 [4]: 36.7 mg/kg
"CC(NC(C)(C)C)C(=O)c1ccc(F)c(F)c1 (stereo not drawn) [Compound 2i, 2-tert-Butylamino-3′,4′-difluoropropiophenone]",–,–,–,–,2%,17%,47%,–,–,–,–,58%,54.6 mg/kg,–
"CC(NC(C)(C)C)C(=O)c1cc(F)cc(F)c1 (stereo not drawn) [Compound 2m, 2-(tert-Butylamino)-3′,5′-difluoropropiophenone]",0 to 30 min,5600 nM,5660 nM,–,17%,50%,83%,–,strong stimulants in both studies,95%,280 min,93%,39.7 mg/kg,"ED50 [6]: 43.6 mg/kg; ED50 [1, 10]: 33.7 mg/kg; ED50 [4]: 17.9 mg/kg"
"CC(NC(C)(C)C)C(=O)c1cc(Cl)cc(Cl)c1 (stereo not drawn) [Compound 2n, 2-(tert-Butylamino)-3′,5′-dichloropropiophenone]",–,–,–,–,–,–,–,NE^f,–,–,–,–,–,–
"CCCCCC(NC(C)(C)C)C(=O)c1cccc(Cl)c1 (stereo not drawn) [Compound 2r, 2-(N-tert-Butylamino)-3′-chloroheptanophenone]",60 to 90 min,1570 nM,709 nM,0%,0%,34%,17%,–,weak stimulants in both tests,78%,280 to 460 min,66%,5.82 mg/kg,"ED50 [1, 10]: 13.4 mg/kg; Ki [7]: 4300 nM; IC50 [8]: 2000 nM"
"CC(C)NC(C)C(=O)c1cccc(Cl)c1 (stereo not drawn) [Compound 2w, 2-(N-Isopropylamino)-3′-chloropropiophenone]",20 to 50 min,–,3980 nM,–,–,–,–,–,activity similar to cocaine in the 1-h protocol but weakened significantly in the 8-h time-course study,65%,50 to 160 min,84%,–,"ED50 ([1]; 8 h): 7.4 mg/kg; IC50 ([2]; [3H]DA, read-out: IC50 for DA uptake inhibition): 2000 nM; times less potent than bupropion as DA uptake inhibitor ([2]; relative to bupropion): 2 times"
"COC(=O)[C@H]1[C@@H](OC(=O)c2ccccc2)C[C@@H]2CC[C@H]1N2C [cocaine, reference compound]",0 to 30 min,–,–,–,–,–,–,8.5-11^e mg/kg,–,100%,40 to 100 min,100%,8.5 to 11 mg/kg,–
